Measured values from patent US8758777B2, “Pharmaceutical compositions comprising water-soluble sulfonate-protected nanoparticles and uses thereof” (Bar-Ilan University, priority 2010, dated 2014).

Tested on: wild-type HSV-1 McIntyre strain
Experiment: Antiviral assay (plaque reduction) in Vero cells
Format: cell-based, herpes simplex virus-1 (HSV-1)
Details: 50-1000 μg/ml; 80 PFU; 48 hours
Procedure: Antiviral assay: The virus used was the wild-type HSV-1 McIntyre strain. For the inhibition experiments, 7×10^4 Vero cells/well were grown in 24 well plates.
Cell monolayers were infected with HSV-1 in the presence or absence of the nanoparticles, as described in the antiviral assay in the Experimental, and observed for the presence of plaques after 48 hours. Plaque formation was obtained by the addition of γ-globulins, which prevents virus dissemination while retaining cell-to-cell spread. FIG. 3A (panels a-h) show images of the cell cultures after 48 hours.

O=S(=O)([O-])CCS.[Na+] [soluble MES, sodium 2-mercaptoethanesulfonate]
inhibition of virus infection (number of plaques and average size): completely ineffective
